System: MDA-MB-231
Assay: Cytotoxicity against human MDA-MB-231 cells incubated for 72 hrs by MTT assay
Assay type: functional, cell-based
Conditions: MDA-MB-231, 72 h

COC(=O)c1cc(-c2ccc(NC(=O)c3nc(NC(=O)CO[C@H]4CCN5C(=O)c6cc(OC)c(OC)cc6N=C[C@H]45)cn3C)cc2)cn1C
IC50: 36 nM

COc1cc2c(cc1OC)C(=O)N1CC[C@H](OCCCO[C@H]3CCN4C(=O)c5cc(OC)c(OC)cc5N=C[C@H]34)[C@H]1C=N2
IC50: 236 nM
